Patent US6593480B2 (Abbott Laboratories, priority 1999, dated 2003)

Biological target: T1, Human glucocorticoid receptors (Homo sapiens, UniProt P04150)
T1 construct: made in house; host or cells: Sf9 insect cells, recombinant baculovirus (BAC-TO-BAC)
T1 sequence (P04150 1-777): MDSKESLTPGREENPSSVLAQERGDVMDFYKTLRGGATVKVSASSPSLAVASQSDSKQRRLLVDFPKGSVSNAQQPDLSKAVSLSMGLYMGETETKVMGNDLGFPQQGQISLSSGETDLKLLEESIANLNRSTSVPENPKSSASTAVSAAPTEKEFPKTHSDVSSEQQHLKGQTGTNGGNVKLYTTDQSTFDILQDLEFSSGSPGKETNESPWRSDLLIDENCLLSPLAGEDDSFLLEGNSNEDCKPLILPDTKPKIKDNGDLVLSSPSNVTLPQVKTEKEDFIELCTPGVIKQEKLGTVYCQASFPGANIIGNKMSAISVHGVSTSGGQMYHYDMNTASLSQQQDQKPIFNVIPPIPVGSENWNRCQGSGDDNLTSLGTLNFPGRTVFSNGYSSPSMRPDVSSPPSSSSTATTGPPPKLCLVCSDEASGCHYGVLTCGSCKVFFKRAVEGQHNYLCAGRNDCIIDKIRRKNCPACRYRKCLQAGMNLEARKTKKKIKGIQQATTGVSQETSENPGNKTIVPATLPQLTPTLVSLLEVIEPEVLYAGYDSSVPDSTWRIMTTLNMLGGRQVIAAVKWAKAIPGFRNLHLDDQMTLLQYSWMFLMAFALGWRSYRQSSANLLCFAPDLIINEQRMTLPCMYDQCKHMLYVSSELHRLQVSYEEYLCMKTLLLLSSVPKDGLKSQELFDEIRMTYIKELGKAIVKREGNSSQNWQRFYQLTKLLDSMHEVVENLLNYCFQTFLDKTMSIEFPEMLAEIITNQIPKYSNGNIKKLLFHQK
Test: Radioligand filter binding assay, displacement of 3(H)-dexamethasone from human glucocorticoid receptor cytosol
Details: 1.7 μM test compound, inhibition of 3(H)-dex binding to hGR; for inhibition at 1.7 µM: read-out: GR BINDING (% Inhibition @ 1.7 μM)

inhibition at 1.7 µM	GR BINDING (% Inhibition @ 1.7 μM)	SMILES
54.4%		COc1cccc2c1-c1ccc(NCC3CC3)cc1C(c1ccccc1)O2 (stereo not shown) [Example 20, (1-methoxy-6-phenyl-6H-dibenzo(b,d)pyran-8-yl)cyclopropylmethylamine]
66.1%		CCOC(=O)CCCCCC1Oc2cccc(OC)c2-c2ccc(NS(C)(=O)=O)cc21 (stereo not shown) [Example 79, ethyl 6-{1-methoxy-8-[(methylsulfonyl)amino]-6H-benzo[c]chromen-6-yl}hexanoate]
	36.9%	COc1cccc2c1-c1ccc(NS(C)(=O)=O)cc1[C@@H](c1ccccc1)O2 [Example 23, 6R-(1-methoxy-6-phenyl-6H-dibenzo(b,d)pyran-8-yl)methanesulfonamide]
42.7%		COCCOCOc1ccc2c(c1OC)-c1ccc(NS(C)(=O)=O)cc1C(c1ccccc1)O2 (stereo not shown) [Example 106, N-{1-methoxy-2-[(2-methoxyethoxy)methoxy]-6-phenyl-6H-benzo[c]chromen-8-yl}methanesulfonamide]
75.1%		COc1cccc2c1-c1ccc(NS(C)(=O)=O)cc1C(Cc1cccc(C#N)c1)O2 (stereo not shown) [Example 49]
63.8%		COc1cccc2c1-c1ccc(NS(C)(=O)=O)cc1C(c1cccc(-c3ccc(C(=O)O)cc3)c1)O2 (stereo not shown) [Example 122, 3′-{1-methoxy-8-[(methylsulfonyl)amino]-6H-benzo[c]chromen-6-yl}[1,1′-biphenyl]-4-carboxylic acid]
	58.8%	COc1cccc2c1-c1ccc(CS(N)(=O)=O)cc1C(C1CCCCC1=O)O2 (stereo not shown) [Example 72, (1-methoxy-6-(2-(1-oxocyclohexyl))-6H-dibenzo(b,d)pyran-8-yl)methanesulfonamide]
	81.6%	COc1cccc2c1-c1ccc(NS(C)(=O)=O)cc1C(c1cccc(O)c1)O2 (stereo not shown) [Example 34, (1-methoxy-6-(3-hydroxy)phenyl-6H-dibenzo(b,d)pyran-8-yl)-methanesulfonamide]
58.9%		CC(=O)c1cccc2c1-c1ccc(NS(C)(=O)=O)cc1C(c1ccccc1)O2 (stereo not shown) [Example 38]
86.8%		CCCC1Oc2cccc(OC(F)F)c2-c2ccc(NS(C)(=O)=O)cc21 (racemic) [Example 27]
77.9%		C=CCOc1cccc2c1-c1ccc(NS(C)(=O)=O)cc1C(c1ccccc1)O2 (stereo not shown) [Example 78, N-[1-(allyloxy)-6-phenyl-6H-benzo[c]chromen-8-yl]methanesulfonamide]
93.6%		COCCCCCCc1cccc(C2Oc3cccc(OC(F)F)c3-c3ccc(NS(C)(=O)=O)cc32)c1 (stereo not shown) [Example 141, N-{1-(difluoromethoxy)-6-[3-(6-methoxyhexyl)phenyl]-6H-benzo[c]chromen-8-yl}methanesulfonamide]
84.1%		COc1cccc2c1-c1ccc(NS(C)(=O)=O)cc1C(c1cccc(Oc3ccc(C(C)=O)cc3)c1)O2 (stereo not shown) [Example 140, N-{6-[3-(4-acetylphenoxy)phenyl]-1-methoxy-6H-benzo[c]chromen-8-yl}methanesulfonamide]
87.7%		COc1cccc2c1-c1ccc(NS(C)(=O)=O)cc1C(c1cccc(CCCCC#N)c1)O2 (stereo not shown) [Example 113, N-{6-[3-(4-cyanobutyl)phenyl]-1-methoxy-6H-benzo[c]chromen-8-yl}methanesulfonamide]
	87.4%	C=CCCCc1cccc(C2Oc3cccc(OC)c3-c3ccc(NS(C)(=O)=O)cc32)c1 (stereo not shown) [Example 111, N-{1-nethoxy-6-[3-(4-pentenyl)phenyl]-6H-benzo[c]chromen-8-yl}methanesulfonamide]
78.2%		COc1cccc2c1-c1ccc(NS(C)(=O)=O)cc1C(c1cccc(CCCC(=O)N3CCCCC3)c1)O2 (stereo not shown) [Example 142, N-(1-methoxy-6-{3-[4-oxo-4-(1-piperidinyl)butyl]phenyl}-6H-benzo[c]chromen-8-yl)methanesulfonamide]
76.6%		CS(=O)(=O)Nc1ccc2c(c1)C(c1cccc(CCCC(=O)O)c1)Oc1cccc(OC(F)F)c1-2 (stereo not shown) [Example 121, 4-(3-{1-(difluoromethoxy)-8-[(methylsulfonyl)amino]-6H-benzo[c]chromen-6-yl}phenyl)butanoic acid]

inhibition at 1.7 µM	GR BINDING (% Inhibition @ 1.7 μM)	SMILES
83.7%		CCOC(=O)C(C)CCCc1cccc(C2Oc3cccc(OC(F)F)c3-c3ccc(NS(C)(=O)=O)cc32)c1 (stereo not shown) [Example 135, ethyl 5-(3-{1-(difluoromethoxy)-8-[(methylsulfonyl)amino]-6H-benzo[c]chromen-6-yl}phenyl)-2-methylpentanoate]
90.8%		CCOC(=O)CCCc1cccc(C2Oc3cccc(OC)c3-c3ccc(NS(C)(=O)=O)cc32)c1 (stereo not shown) [Example 150, ethyl 4-(3-{1-methoxy-8-[(methylsulfonyl)amino]-6H-benzo[c]chromen-6-yl}phenyl)butanoate]
66%		COc1cccc2c1-c1ccc(CCN)cc1C(c1ccccc1)O2 (stereo not shown) [Example 19, (1-methoxy-6-phenyl-6H-dibenzo(b,d)pyran-8-yl)ethylamine]
55%		CCCN(C)c1ccc(C2Oc3cccc(OC(F)F)c3-c3ccc(N)c(Br)c32)cc1 (stereo not shown) [Example 29, (1-difluoromethoxy-6-(4-(N-propyl-N-methylamino)phenyl)-7-bromo-6H-dibenzo(b,d)pyran-8-yl)-amine]
83.5%		CCOC(=O)CCCc1cccc(C2Oc3cccc(OC(F)F)c3-c3ccc(NS(C)(=O)=O)cc32)c1 (stereo not shown) [Example 115, ethyl 4-(3-{1-(difluoromethoxy)-8-[(methylsulfonyl)amino]-6H-benzo[c]chromen-6-yl}phenyl)butanoate]
57.8%		COc1cccc2c1-c1ccc(NS(=O)(=O)/C=C/c3ccccc3)cc1C(c1ccccc1)O2 (stereo not shown) [Example 11, (1-methoxy-6-phenyl-6H-dibenzo(b,d)pyran-8-yl)-(2-phenyl-E-ethenyl) sulfonamide]
91.7%		COc1cccc2c1-c1ccc(NS(C)(=O)=O)cc1C(c1cccc(CCCC#N)c1)O2 (stereo not shown) [Example 112, N-{6-[3-(3-cyanopropyl)phenyl]-1-methoxy-6H-benzo[c]chromen-8-yl}methanesulfonamide]
69.3%		CS(=O)(=O)Nc1ccc2c(c1)C(c1ccccc1)Oc1cccc(-c3ccco3)c1-2 (racemic) [Example 40]
88.7%		C=CCc1cccc2c1-c1ccc(NS(C)(=O)=O)cc1C(c1ccccc1)O2 (racemic) [Example 41]
	87.9%	COc1cccc2c1-c1ccc(NS(=O)(=O)C(C)C)cc1C(c1ccccc1)O2 (stereo not shown) [Example 8, (1-methoxy-6-phenyl-6H-dibenzo(b,d)pyran-8-yl)isopropanesulfonamide]
69.5%		COc1cccc2c1-c1ccc(NS(C)(=O)=O)cc1C(c1cccc(CCCC(=O)O)c1)O2 (stereo not shown) [Example 151, 4-(3-{1-methoxy-8-[(methylsulfonyl)amino]-6H-benzo[c]chromen-6-yl}phenyl)butanoic acid]
81.6%		COc1cccc2c1-c1ccc(NS(C)(=O)=O)cc1C(Cc1cc(F)cc(F)c1)O2 (stereo not shown) [Example 85, N-[6-(3,5-difluorobenzyl)-1-methoxy-6H-benzo[c]chromen-8-yl]methanesulfonamide]
91.3%		COc1cccc2c1-c1ccc(NS(C)(=O)=O)cc1C(c1ccc(/C=C/c3ccccc3)s1)O2 (stereo not shown) [Example 101, N-(1-methoxy-6-{5-[(E)-2-phenylethenyl]-2-thienyl}-6H-benzo[c]chromen-8-yl)methanesulfonamide]
	44.3%	COCCNC(=O)c1cccc(C2Oc3cccc(OC)c3-c3ccc(NS(C)(=O)=O)cc32)c1 (stereo not shown) [Example 64, (1-methoxy-6-(3-(2-methoxyethyl)aminocarbonyl)phenyl-6H-dibenzo(b,d)pyran-8-yl)-methanesulfonamide]
94.8%		C=Cc1cccc2c1-c1ccc(NS(C)(=O)=O)cc1C(c1ccccc1)O2 (racemic) [Example 37]
74.8%		COc1cccc2c1-c1ccc(NS(C)(=O)=O)cc1C(c1cccc(N(C)C(C)=O)c1)O2 (stereo not shown) [Example 110, N-(3-{1-methoxy-8-[(methylsulfonyl)amino]-6H-benzo[c]chromen-6-yl}phenyl)-N-methylacetamide]

SMILES	inhibition at 1.7 µM	GR BINDING (% Inhibition @ 1.7 μM)
C[Si](C)(C)CCCc1cccc(C2Oc3cccc(OC(F)F)c3-c3ccc(NS(C)(=O)=O)cc32)c1 (stereo not shown) [Example 134, N-(1-(difluoromethoxy)-6-{3-[3-(trimethylsilyl)propyl]phenyl}-6H-benzo[c]chromen-8-yl)methanesulfonamide]	88.8%	
CCC(=O)Nc1ccc2c(c1)C(c1ccccc1)Oc1cccc(OC)c1-2 (stereo not shown) [Example 13, (1-methoxy-6-phenyl-6H-dibenzo(b,d)pyran-8-yl)propionamide]		85.4%
COc1cc(C)cc2c1-c1ccc(NS(C)(=O)=O)cc1C(c1ccccc1)O2 (stereo not shown) [Example 67, (1-methoxy-3-methyl-6-phenyl-6H-dibenzo(b,d)pyran-8-yl)methanesulfonamide]	49.3%	
COc1cccc2c1-c1ccc(NC(=O)C(C)C)cc1C(c1ccccc1)O2 (stereo not shown) [Example 14]		85.1%
